Experimental data published in patent US6664442B2, “Selecting compounds to reduce inflammation associated with Alzheimer's disease” (Elan Pharmaceuticals, Inc., priority 2000, dated 2003).

Legend:
Assay type in all cases: in vivo, mouse
[1] = test system: MCP-1; assay: mRNA expression of MCP-1 in PDAPP mice immunized with Aβ1-42 or a fragment, quantitative RT-PCR; conditions: tissue not given
Description: (§1) RNA was isolated from brain tissues using the S.N.A.P.™ Total RNA Isolation Kit (Invitrogen, Carlsbad, Calif.) according to manufacturer's instructions, with the following modifications: the tissue was homogenized for 20 seconds using a rotor-stator homogenizer (Fisher Scientific). The DNA digestion step was repeated a second time following isopropanol precipitation.
(§2) Quantitative PCR assays were run on a Perkin Elmer 7700 Sequencer using methods and materials provided by Perkin Elmer (Applied Biosystems Division, Foster City, Calif.). Primers and fluorescent probes were obtained from Perkin Elmer; the sequences and concentrations of primers and probes used for the various assays are listed in Table 1 below. PCR reactions were set up using approximately 300 nM concentrations of each of the forward and reverse primers, 100 nM probe and RNA extracted from the tissue of interest (20 ng). Each reaction also included a standard RNA for comparison. Data were normalized to total RNA or to GAPDH. Standard curves were run using standard RNA prepared from the appropriate tissue (e.g., brain total RNA). Sample results were normalized to the amount of RNA measured by OD and or control message (e.g., GAPDH).
(§3) Thus, the efficacy of Aβ-treatment can be assessed by comparing the mRNA expression of such markers.

[2] = test system: IFN-γ; assay: mRNA expression of IFN-γ in PDAPP mice immunized with Aβ1-42 or a fragment, quantitative RT-PCR; conditions: tissue not given
Description: as §1, §2, §3

[3] = test system: CD4; assay: mRNA expression of CD4 in PDAPP mice immunized with Aβ1-42 or a fragment, quantitative RT-PCR; conditions: tissue not given
Description: as §1, §2, §3

[4] = test system: Igk; assay: mRNA expression of Igk in PDAPP mice immunized with Aβ1-42 or a fragment, quantitative RT-PCR; conditions: tissue not given
Description: as §1, §2, §3

[5] = test system: IgG-1; assay: mRNA expression of IgG-1 in PDAPP mice immunized with Aβ1-42 or a fragment, quantitative RT-PCR; conditions: Fr cortex
Description: as §1, §2, §3

Aβ1-5: fragment of Aβ1-42 used to immunize PDAPP mice (DAEFR; Amyloid-beta protein 42; UniProt P05067 672-676, looked up, fragment)
MCP-1 mRNA, ratio of Aβ-treated mice to non-Aβ-treated mice [1]: 0.75X
IFN-γ mRNA, ratio of Aβ-treated mice to non-Aβ-treated mice [2]: .8X
CD4 mRNA, ratio of Aβ-treated mice to non-Aβ-treated mice [3]: 0.99X
Igk mRNA, ratio of Aβ-treated mice to non-Aβ-treated mice [4]: 2.10X

Aβ1-42: amyloid β-peptide 1-42 used to immunize PDAPP mice
IgG-1 mRNA, ratio of Aβ-treated mice to non-Aβ-treated mice [5]: 300X
